The results in this text go back to ChEMBL document CHEMBL3525998, “Metabolism of saikosaponin a in rats: diverse oxidations on the aglycone moiety in liver and intestine in addition to hydrolysis of glycosidic bonds” (Drug Metab Dispos, 2013).

Holding throughout (type): ADME, organism-based
One data set is filed under the species Rattus norvegicus. The data set is described as follows: Drug metabolism in Sprague-Dawley rat assessed as retention time by LC-DAD-IT-TOF-MS analysis.
A short description of data set [1]: Drug recovery in po dosed rat excreted feces measured over 0 to 24 hrs after drug administration by HPLC analysis relative to starting drug dose. As to conditions: faeces, read-out: Drug recovery.
Data set [2] can be described thus: Drug excretion in Sprague-Dawley rat feces assessed as metabolite 3-keto-saikogenin f level at 15 mg/kg, iv by LC-DAD-IT-TOF-MS analysis. On the set-up: dose 15 mg/kg, route intravenous. As to conditions: in vivo.
Data set [3] in a line: Drug excretion in Sprague-Dawley rat urine assessed as metabolite delta1-saikogenin f level at 15 mg/kg, iv by LC-DAD-IT-TOF-MS analysis. On the set-up: dose 15 mg/kg, route intravenous. As to conditions: in vivo.
The nature of data set [4]: Drug excretion in Sprague-Dawley rat urine assessed as metabolite prosaikogenin f level at 50 mg/kg, po administered through gavage by LC-DAD-IT-TOF-MS analysis. As to conditions: in vivo. On the set-up: dose 50 mg/kg, route oral.
The nature of data set [5]: Drug excretion in Sprague-Dawley rat urine assessed as metabolite saikogenin f level at 50 mg/kg, po administered through gavage by LC-DAD-IT-TOF-MS analysis. On the set-up: dose 50 mg/kg, route oral. Particulars: in vivo.
Data set [6] concerns Plasma. The data set is described as follows: Drug metabolism in Sprague-Dawley rat plasma assessed as metabolite 3-keto-saikogenin f formation at 50 mg/kg, po administered through gavage by LC-DAD-IT-TOF-MS analysis. On the set-up: dose 50 mg/kg, route oral. As to conditions: in vivo.
Data set [7] in a line: Drug excretion in Sprague-Dawley rat bile assessed as metabolite 3-keto-saikogenin f level at 50 mg/kg, po administered through gavage by LC-DAD-IT-TOF-MS analysis. As to conditions: in vivo. On the set-up: dose 50 mg/kg, route oral.
Data set [8] in a line: Drug excretion in Sprague-Dawley rat bile assessed as metabolite delta1-saikogenin f level at 50 mg/kg, po administered through gavage by LC-DAD-IT-TOF-MS analysis. On the set-up: dose 50 mg/kg, route oral. Particulars: in vivo.
Data set [9] is described as follows: Drug excretion in Sprague-Dawley rat feces assessed as metabolite delta1-saikogenin f level at 50 mg/kg, po administered through gavage by LC-DAD-IT-TOF-MS analysis. On the set-up: dose 50 mg/kg, route oral. Particulars: in vivo.
Data set [10] relates to Plasma. The data set is described as follows: Drug metabolism in Sprague-Dawley rat plasma assessed as metabolite saikogenin f-27-oic acid formation at 50 mg/kg, po administered through gavage by LC-DAD-IT-TOF-MS analysis. On the set-up: dose 50 mg/kg, route oral. As to conditions: in vivo.
Data set [11] is described as follows: Drug excretion in Sprague-Dawley rat bile assessed as metabolite saikogenin f-27-oic acid level at 50 mg/kg, po administered through gavage by LC-DAD-IT-TOF-MS analysis. On the set-up: dose 50 mg/kg, route oral. Particulars: in vivo.
Data set [12] in a line: Drug excretion in Sprague-Dawley rat feces assessed as metabolite saikogenin f-27-oic acid level at 50 mg/kg, po administered through gavage by LC-DAD-IT-TOF-MS analysis. As to conditions: in vivo. On the set-up: dose 50 mg/kg, route oral.
Data set [13] in a line: Drug excretion in Sprague-Dawley rat bile at 15 mg/kg, iv by LC-DAD-IT-TOF-MS analysis. On the set-up: dose 15 mg/kg, route intravenous. Particulars: in vivo.
The nature of data set [14]: Drug excretion in Sprague-Dawley rat urine at 15 mg/kg, iv by LC-DAD-IT-TOF-MS analysis. On the set-up: dose 15 mg/kg, route intravenous. As to conditions: in vivo.
Data set [15] can be described thus: Drug excretion in Sprague-Dawley rat bile assessed as metabolite hydroxysaikosaponin a level at 15 mg/kg, iv by LC-DAD-IT-TOF-MS analysis. On the set-up: dose 15 mg/kg, route intravenous. As to conditions: in vivo.
Data set [16] in a line: Drug excretion in Sprague-Dawley rat urine assessed as metabolite hydroxysaikosaponin a level at 15 mg/kg, iv by LC-DAD-IT-TOF-MS analysis. On the set-up: dose 15 mg/kg, route intravenous. As to conditions: in vivo.
For data set [17], the system named is Plasma. The data set is described as follows: Drug metabolism in Sprague-Dawley rat plasma assessed as metabolite prosaikogenin f formation at 15 mg/kg, iv by LC-DAD-IT-TOF-MS analysis. On the set-up: dose 15 mg/kg, route intravenous. Particulars: in vivo.
A short description of data set [18]: Drug excretion in Sprague-Dawley rat bile assessed as metabolite prosaikogenin f level at 15 mg/kg, iv by LC-DAD-IT-TOF-MS analysis. On the set-up: dose 15 mg/kg, route intravenous. As to conditions: in vivo.
A short description of data set [19]: Drug excretion in Sprague-Dawley rat bile assessed as metabolite saikogenin f level at 15 mg/kg, iv by LC-DAD-IT-TOF-MS analysis. On the set-up: dose 15 mg/kg, route intravenous. As to conditions: in vivo.

Turning to `C[C@H]1O[C@@H](O[C@H]2CC[C@@]3(C)[C@@H](CC[C@]4(C)[C@@H]3C=C[C@]35OC[C@@]6(CCC(C)(C)C[C@H]63)[C@@H](O)C[C@]54C)[C@]2(C)CO)[C@H](O)[C@@H](O[C@@H]2O[C@H](CO)[C@@H](O)[C@H](O)[C@H]2O)[C@H]1O` [SAIKOSAPONIN A], the Retention_time in the data set filed under Rattus norvegicus is listed as 39.9 min. In addition, in [1], the dose excreted is > 50%. For the same compound, the Drug excretion result in [2] is “metabolite_not_detected”; in [3], “metabolite_not_detected”; in [4], “metabolite_detected”; in [5], “metabolite_detected”; in data set [7], “metabolite_not_detected”; in [8], “metabolite_not_detected”. In addition, the Drug excretion result in data set [9] is listed as “metabolite_detected”; in data set [11], “metabolite_not_detected”; in [12] it was “metabolite_detected”; in data set [13], “metabolite_detected”; in data set [14], “metabolite_detected”; in [15], “metabolite_detected”. In addition, the Drug excretion entry is listed as “metabolite_not_detected” in [16], “metabolite_detected” in data set [18] and “metabolite_not_detected” in [19]. Besides, the Drug metabolism entry in the data set on Plasma [6] is given as “metabolite_not_detected”; in the data set with Plasma [10] it was “metabolite_not_detected”; in the data set with Plasma [17], “metabolite_detected”.
